Experimental data reported in US11000505B2 (priority 2010, dated 2021).
Where “and” joins values, the source holds several entries; their conditions need not be identical. Equal values may be shown once.

System: neonatal mouse hypoxia model
Assay: Neonatal mouse hypoxia model: mortality, development, neurobehavior (Example 5)
Type: in vivo, C57BL/6J mice
Description: The protocol was approved by the Institutional Animal Care and Use Committee (IACUC) of the University of Pennsylvania and carried out in accordance with National Institutes of Health guidelines for the use of animals. C57BL/6J mice were purchased from The Jackson Laboratory (Bar Harbor, Me.) and inbreed pups were used for subsequent experiments. Pups were housed under a 12-hour light/dark cycle after birth with free access to food and water throughout the study. Pups from different litters were divided into 3 groups randomly. Pups in the control group (n=11) received i.p. injection of 17% dimethyl sulfoxide (DMSO) without hypoxia insult; the hypoxia group (n=46) received i.p. injection of 17% DMSO and hypoxia insult; SA group (n=26) received i.p. injection of 0.5 mg/kg SA in 17% DMSO and hypoxia insult. Pups of low weight (<1.2 g) were excluded from the study.
The hypoxic insult was induced on postnatal day 1. After i.p. injections, pups were put into a glass chamber in a water bath where the temperature was maintained at 37° C. The chamber was tightly closed and filled with 8% oxygen with balanced nitrogen. Following 120 minutes of hypoxic gas exposure, the chamber was opened and the pups were exposed to the air. Chest compressions and limb stretches were performed for up to 20 minutes to regain spontaneous breathing. The pups that successfully regained spontaneous breathing were then returned to their mothers after recovery for 30 minutes.
The neonate mouse will be considered as non-survival if no spontaneous breathing can be restored for 20 min resuscitation immediately after anoxic insult. The mortality rate will be calculated as: […]=(number of mice in a group-number of non-survival)/number of mice in a group.
From postnatal day 2 to postnatal day 21, the pups were weighed and motor behavior observation was performed every day. Pups were observed individually in a plastic testing box. Each of the following behaviors was recorded for 3 minutes: crawling, walking, running, head point and sniffing, sitting, rearing and eye opening. After the observation, placing reflex, cliff aversion, negative geotaxis, righting response and forelimb grasping testing were performed. The first appearance of the behavior or reflex continued for two consecutive days was recorded.
The open field test was performed to gauge locomotor activity on postnatal day 21 at which the mouse was considered juvenile. Mice were individually placed in a 41 cm (L)×41 cm (W)×30 cm (H) plastic box. The “central area” was defined as a 20.5 cm×20.5 cm square in the center of the box. The rest of the area was defined as the “peripheral area” (see FIG. 25A). The time each mouse spent on exploring the central and periphery parts and the number of rearing behaviors in each respective area were recorded for the first 5 minutes and 30 minutes.
At the age of 10-11 weeks, all mice were tested in several behavioral tasks in the order of: zero mazes, barnes maze and fear conditioning. These tasks were performed to examine the basal anxiety level, spontaneous locomotor activity, motor learning, spatial learning and associative memory of the mice. The mice were given 5 days for rest between each behavioral test.
“Time in open” measures mice anxiety due to their tendency to avoid open spaces. The anxiety was measured by recording the time spent in the open vs. enclosed space. Increased anxiety correlates to decreased time in the open. Open/Closed transitions measure overall activity. Increased transitions equate to greater activity.
Measures the ability to learn with visual cues. Time to Target measures the time taken to find the target hole in an arena with 19 other holes and several visual cues. The Barnes Maze is easier to set-up and probably less stressful and a valid alternative to the Water Maze to study spatial memory. […]

## COC(=O)[C@@H]1C[C@H](OC(C)=O)C(=O)[C@H]2[C@@]1(C)CC[C@H]1C(=O)O[C@H](c3ccoc3)C[C@]21C [Salvinorin A]
0.5 mg/kg i.p. before 120 min hypoxia (8% oxygen), postnatal day 1, hypoxia group 70%
  mortality rate: 38.5%
0.5 mg/kg i.p. before hypoxia
  delayed appearance of forelimb grasping, cliff aversion, righting response and eye opening: prevented these delays
  pups survived after HI injury: 16 out of 26
P7, P14 and P21
  body weight difference among groups: no significant difference was observed among groups
P21
  time in the central area, open field testing: not statistically significant
P21, first 5 minutes and 30 minutes
  rearing test: impairment was not observed
Age 10-11 weeks
  Barnes maze spatial memory: no significant difference among groups
  elevated zero maze: time in open arm and open/closed transitions, SA vs hypoxia: no significant differences
  fear conditioning: no significant differences were observed among groups
Hypoxia 19.86±0.29, control 18.18±0.44, mean±SEM, listed as SA
  first appearance of rearing without support: 18.69 ± 0.38 days and 18.69 ± 0.3843 days
mouse, in vivo
  other developmental parameters (crawling, walking, running, head point and sniffing, sitting, rearing with support, negative geotaxis, placing reflex): no statistical significance
Postnatal day 2 and day 3
  body weight vs hypoxia group: increased body weight
